Laboratory results: article PMC10060569 (Frontiers in Pharmacology, 2023)
“And” between values parts separate entries of the source, which are not always exact repeats. Equal values may be shown once.

Key:
[1] = cited from earlier work
hP2X2R = biological target: T1, hP2X2R (Homo sapiens, UniProt Q9UBL9); test: TEVC of ATP-induced currents, hP2X2R in X. laevis oocytes (steady-state protocol); type: cell-based
T1 construct: expressed in transfected cells; host or cells: Xenopus laevis oocytes (cRNA injection)
T1 sequence (Q9UBL9 1-471): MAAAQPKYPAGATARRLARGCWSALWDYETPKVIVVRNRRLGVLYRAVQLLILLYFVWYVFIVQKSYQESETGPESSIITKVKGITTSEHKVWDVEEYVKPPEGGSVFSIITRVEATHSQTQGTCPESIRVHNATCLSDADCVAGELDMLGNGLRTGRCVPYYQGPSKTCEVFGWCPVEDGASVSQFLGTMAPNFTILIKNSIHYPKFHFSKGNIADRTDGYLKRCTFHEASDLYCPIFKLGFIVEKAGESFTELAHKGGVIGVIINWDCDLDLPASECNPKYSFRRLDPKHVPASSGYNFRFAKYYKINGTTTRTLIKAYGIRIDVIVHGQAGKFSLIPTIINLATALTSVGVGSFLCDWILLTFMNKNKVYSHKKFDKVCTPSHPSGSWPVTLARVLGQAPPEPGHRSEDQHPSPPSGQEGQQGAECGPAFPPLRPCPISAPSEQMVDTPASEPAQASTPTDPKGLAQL
Source text: Oocyte expression plasmids encoding the wild-type (wt) and N-terminally His-tagged (His-) fusion constructs of the hP2X2R, hP2X3R, hP2X4R, and hP2X7R, and the mutant His-^20RMVL^23KVIV^23S^26N-hP2X1R, S^15V-rP2X3R, and His-S^15V-hP2X3R were the same as used in previous research ([Hausmann et al., 2006]; [Wolf et al., 2011]; [Hausmann et al., 2014]; [Obrecht et al., 2019]). In most cases, the N-terminal His-tagged variants of P2XRs were used here and in the previous studies to allow biochemical analyses on affinity-purified proteins using the same constructs. Although this was not required for the present study, it allows for better comparability with our previous studies. Capped cRNAs of different P2XRs were already available in the research group or were synthesized as previously described ([Schmalzing et al., 1991]; [Stolz et al., 2015]). cRNA was injected into collagenase-defolliculated X. laevis oocytes in aliquots of 41 nl or 23 nl (see Supplementary Table S1 for the amount of cRNA used for expression of the indicated P2XR) using a Nanoliter 2000 injector (World Precision Instruments, Sarasota, United States of America) as described previously ([Hausmann et al., 2014]; [Stolz et al., 2015]; [Obrecht et al., 2019]). To express the heteromeric hP2X2/3 receptor, cRNAs encoding His-hP2X2R and wt-hP2X3R were coinjected at a ratio (w/w) of 1:6. Oocytes were stored at 19°C in an oocyte ringer solution (ORi^+) containing 90 mM NaCl, 1 mM KCl, 1 mM CaCl2, 1 mM MgCl2, and 10 mM HEPES (Carl Roth, Karlsruhe, Germany) adjusted to pH 7.4 with NaOH and supplemented with 50 μg/ml gentamicin (AppliChem, Darmstadt, Germany). The procedures followed for the maintenance of and the surgical treatment for X. laevis adults were approved by the governmental animal care and use committee of the State Agency for Nature, Environment, and Consumer Protection (LANUV, Recklinghausen, Germany; reference no. 81-02.04.2019. A355), in compliance with Directive 2010/63/EU of the European Parliament and of the Council on the protection of animals used for scientific purpose.
Ion currents mediated by P2X receptors were evoked by the indicated concentration of ATP or α,β-meATP and were recorded 1 or 2 days after cRNA injection at ambient temperature at a holding potential of −60 mV by two-electrode voltage clamp (TEVC) as previously described ([Hausmann et al., 2006]). Calcium-free ORi^− solution (90 mM NaCl, 1 mM KCl, 2 mM MgCl2, 10 mM HEPES, pH 7.4) was used to avoid bias due to calcium-activated chloride channels (CaCC) endogenously expressed in X. laevis oocytes ([Miledi, 1982]; [Methfessel et al., 1986]). For recordings of wt-hP2X7R, the composition of the ORi^− solution was modified according to protocols described previously and contained 100 mM NaCl, 2.5 mM KCl, 1 mM MgCl2, 5 mM HEPES, pH 7.4 ([Klapperstück et al., 2000]). The oocytes were continuously superfused with ORi^− by gravity flow (5–10 ml/min). The agonists ATP or α,β-meATP and the investigated NSAIDs were diluted in ORi^− on the day of the recording. The following agonist concentrations were used for the different P2X subtypes: 1 μM ATP (hP2X1R mutant, hP2X3R, rP2X3R, S^15V-hP2X3R, and S^15V-rP2X3R); 10 μM ATP (hP2X2R and hP2X4R); 300 μM free ATP^4- (hP2X7R); and 1 μM α,β-meATP (hP2X2/3R). […]

EC50 (hP2X2R; 10 µM ATP, concentration–response curve, read-out: half-maximal potentiation value) [µM]	SMILES	plasma levels, transdermal, repetitive application ([1]; applied transdermally, even with repetitive application, ref Drago et al., 2017) [nM]	plasma levels, intramuscular injection ([1]; injected intramuscularly, ref Drago et al., 2017)	maximum plasma levels, oral ([1]; oral application of 50–75 mg diclofenac, ref Kurowski et al., 1994, Kienzler et al., 2010)	plasma levels, transdermal application ([1]; transdermal application, ref Efe et al., 2014)	increase in hP2X2R current amplitude (potentiation) on co-application with ATP (hP2X2R; 10 µM ATP, compared to steady-state current in absence of the drug) [fold]	IC50 (hP2X2R; 10 µM ATP, steady-state protocol, * no inhibition, but potentiation)	Max. inhibition at 1 mM (hP2X2R; 10 µM ATP, * no inhibition, but potentiation)	agonist effect (current induced in the absence of ATP) (hP2X2R; 100 µM diclofenac, 300 µM FFA, absence of ATP)
158	O=C(O)c1ccccc1Nc1cccc(C(F)(F)F)c1 [Flufenamic acid, flufenamic acid]	≤ 180	–	–	–	–	–	–	–
–	O=C(O)Cc1ccccc1Nc1c(Cl)cccc1Cl [Diclofenac, diclofenac]	–	approximately 1.8 μg/ml and ~6 μM	2.3–2.6 μg/ml and 7–8 μM	low nanomolar	1.7	no inh.*	no inh.*	Neither 100 µM diclofenac nor 300 µM FFA induced current
